Data reported in ChEMBL document CHEMBL4052759, “Discovery of DS79182026: A potent orally active hepcidin production inhibitor” (Bioorg Med Chem Lett, 2017).

How the values were obtained:
[1] = target: RAF proto-oncogene serine/threonine-protein kinase (Homo sapiens) (UniProt P04049); assay: Inhibition of c-Raf (unknown origin) at 0.078 uM relative to control
[2] = target: Rho-associated protein kinase 2 (Homo sapiens) (UniProt O75116); assay: Inhibition of ROCK2 (unknown origin) at 0.078 uM relative to control
[3] = target: T1, Serine/threonine-protein kinase Chk1 (Homo sapiens) (UniProt O14757); assay: Inhibition of CHK1 (unknown origin) at 0.078 uM relative to control
T1 sequence (whole entry): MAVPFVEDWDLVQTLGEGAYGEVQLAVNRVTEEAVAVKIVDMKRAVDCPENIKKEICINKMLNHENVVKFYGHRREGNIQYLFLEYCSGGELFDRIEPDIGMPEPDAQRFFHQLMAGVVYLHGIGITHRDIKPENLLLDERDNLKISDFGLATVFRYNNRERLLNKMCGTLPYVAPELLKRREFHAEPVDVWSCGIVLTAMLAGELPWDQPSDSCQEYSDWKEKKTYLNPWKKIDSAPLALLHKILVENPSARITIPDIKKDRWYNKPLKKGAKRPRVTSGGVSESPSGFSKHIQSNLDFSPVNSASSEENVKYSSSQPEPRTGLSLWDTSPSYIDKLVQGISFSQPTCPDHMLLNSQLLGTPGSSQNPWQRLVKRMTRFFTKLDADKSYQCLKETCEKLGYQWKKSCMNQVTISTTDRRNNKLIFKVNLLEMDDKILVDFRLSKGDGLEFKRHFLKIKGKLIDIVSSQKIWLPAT

[4] = target: Tyrosine-protein kinase ABL1 (Homo sapiens) (UniProt P00519); assay: Inhibition of ABL (unknown origin) at 0.078 uM relative to control
Chain of Tyrosine-protein kinase ABL1 (Homo sapiens) (P00519 whole entry): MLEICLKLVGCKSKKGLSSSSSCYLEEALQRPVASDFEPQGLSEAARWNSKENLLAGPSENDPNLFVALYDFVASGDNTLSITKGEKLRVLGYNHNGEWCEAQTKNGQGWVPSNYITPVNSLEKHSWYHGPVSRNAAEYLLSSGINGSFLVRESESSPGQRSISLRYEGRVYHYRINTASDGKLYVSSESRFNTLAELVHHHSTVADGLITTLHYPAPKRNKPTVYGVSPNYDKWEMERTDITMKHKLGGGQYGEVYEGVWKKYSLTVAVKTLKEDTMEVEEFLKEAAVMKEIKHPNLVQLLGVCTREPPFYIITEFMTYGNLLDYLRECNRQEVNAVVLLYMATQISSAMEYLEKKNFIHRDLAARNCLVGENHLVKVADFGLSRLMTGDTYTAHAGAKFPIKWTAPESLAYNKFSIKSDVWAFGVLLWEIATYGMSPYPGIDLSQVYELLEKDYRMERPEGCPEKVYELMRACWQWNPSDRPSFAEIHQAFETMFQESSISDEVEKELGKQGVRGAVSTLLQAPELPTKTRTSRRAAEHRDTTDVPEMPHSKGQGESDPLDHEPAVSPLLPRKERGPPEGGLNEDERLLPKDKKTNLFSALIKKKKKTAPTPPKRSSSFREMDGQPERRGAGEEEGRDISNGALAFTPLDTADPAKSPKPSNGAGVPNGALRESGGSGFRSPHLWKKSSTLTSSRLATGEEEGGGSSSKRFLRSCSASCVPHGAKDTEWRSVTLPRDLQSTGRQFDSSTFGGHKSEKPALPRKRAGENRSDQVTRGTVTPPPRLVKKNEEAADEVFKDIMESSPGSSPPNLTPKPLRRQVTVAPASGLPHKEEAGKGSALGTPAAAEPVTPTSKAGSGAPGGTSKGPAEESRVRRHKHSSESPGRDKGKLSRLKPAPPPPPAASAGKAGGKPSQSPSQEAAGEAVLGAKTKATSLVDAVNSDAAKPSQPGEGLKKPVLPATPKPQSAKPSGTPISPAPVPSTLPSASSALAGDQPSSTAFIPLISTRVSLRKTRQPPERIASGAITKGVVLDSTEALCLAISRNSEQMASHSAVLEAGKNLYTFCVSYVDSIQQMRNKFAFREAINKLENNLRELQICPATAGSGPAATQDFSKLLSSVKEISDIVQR

[5] = target: RAC-alpha serine/threonine-protein kinase (Homo sapiens) (UniProt P31749); assay: Inhibition of AKT1 (unknown origin) at 0.078 uM relative to control
[6] = target: T2, cGMP-dependent protein kinase 1 (Homo sapiens) (UniProt Q13976); assay: Inhibition of PKG-alpha (unknown origin) at 0.078 uM relative to control
T2 sequence (whole entry): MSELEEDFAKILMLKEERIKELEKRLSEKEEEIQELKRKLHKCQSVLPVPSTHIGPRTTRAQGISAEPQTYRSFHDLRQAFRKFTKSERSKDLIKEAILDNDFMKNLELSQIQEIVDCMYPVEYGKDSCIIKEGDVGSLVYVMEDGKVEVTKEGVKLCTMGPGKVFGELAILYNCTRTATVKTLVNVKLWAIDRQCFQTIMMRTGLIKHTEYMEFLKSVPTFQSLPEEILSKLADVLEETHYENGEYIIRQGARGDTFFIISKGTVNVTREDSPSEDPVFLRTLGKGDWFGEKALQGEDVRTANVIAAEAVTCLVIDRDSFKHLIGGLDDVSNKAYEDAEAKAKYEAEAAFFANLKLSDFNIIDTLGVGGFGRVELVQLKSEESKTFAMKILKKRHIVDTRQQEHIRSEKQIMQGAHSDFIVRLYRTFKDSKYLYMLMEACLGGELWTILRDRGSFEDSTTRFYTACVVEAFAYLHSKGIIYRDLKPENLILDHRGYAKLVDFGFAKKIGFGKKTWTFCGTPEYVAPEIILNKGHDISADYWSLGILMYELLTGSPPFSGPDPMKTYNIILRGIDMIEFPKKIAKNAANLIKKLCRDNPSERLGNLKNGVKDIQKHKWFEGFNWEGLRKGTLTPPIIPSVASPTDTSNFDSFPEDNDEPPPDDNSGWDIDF

[7] = target: T3, MAP kinase-activated protein kinase 5 (Homo sapiens) (UniProt Q8IW41); assay: Inhibition of PRAK (unknown origin) at 0.49 uM relative to control
T3 sequence (whole entry): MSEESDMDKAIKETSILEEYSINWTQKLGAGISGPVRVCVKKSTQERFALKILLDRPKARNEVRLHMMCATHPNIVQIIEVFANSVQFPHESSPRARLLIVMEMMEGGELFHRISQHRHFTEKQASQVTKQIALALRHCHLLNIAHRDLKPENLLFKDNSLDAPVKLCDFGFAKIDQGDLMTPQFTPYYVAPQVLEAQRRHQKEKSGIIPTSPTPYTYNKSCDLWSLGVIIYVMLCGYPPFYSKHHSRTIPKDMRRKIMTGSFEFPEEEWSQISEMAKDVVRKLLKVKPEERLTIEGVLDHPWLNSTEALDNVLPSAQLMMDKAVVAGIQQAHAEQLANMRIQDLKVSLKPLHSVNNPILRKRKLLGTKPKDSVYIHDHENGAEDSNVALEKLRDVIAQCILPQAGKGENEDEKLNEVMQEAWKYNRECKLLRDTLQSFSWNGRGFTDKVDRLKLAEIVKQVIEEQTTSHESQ

[8] = target: Serine/threonine-protein kinase BRSK2 (Homo sapiens) (UniProt Q8IWQ3); assay: Inhibition of BRSK2 (unknown origin) at 0.49 uM relative to control
[9] = system: Hepatocyte growth factor receptor (Homo sapiens), P08581 [M1250T]; assay: Inhibition of MET M1250T mutant (unknown origin) at 0.49 uM relative to control
Chain of Hepatocyte growth factor receptor (Homo sapiens), P08581 [M1250T] (P08581 whole entry M1250T): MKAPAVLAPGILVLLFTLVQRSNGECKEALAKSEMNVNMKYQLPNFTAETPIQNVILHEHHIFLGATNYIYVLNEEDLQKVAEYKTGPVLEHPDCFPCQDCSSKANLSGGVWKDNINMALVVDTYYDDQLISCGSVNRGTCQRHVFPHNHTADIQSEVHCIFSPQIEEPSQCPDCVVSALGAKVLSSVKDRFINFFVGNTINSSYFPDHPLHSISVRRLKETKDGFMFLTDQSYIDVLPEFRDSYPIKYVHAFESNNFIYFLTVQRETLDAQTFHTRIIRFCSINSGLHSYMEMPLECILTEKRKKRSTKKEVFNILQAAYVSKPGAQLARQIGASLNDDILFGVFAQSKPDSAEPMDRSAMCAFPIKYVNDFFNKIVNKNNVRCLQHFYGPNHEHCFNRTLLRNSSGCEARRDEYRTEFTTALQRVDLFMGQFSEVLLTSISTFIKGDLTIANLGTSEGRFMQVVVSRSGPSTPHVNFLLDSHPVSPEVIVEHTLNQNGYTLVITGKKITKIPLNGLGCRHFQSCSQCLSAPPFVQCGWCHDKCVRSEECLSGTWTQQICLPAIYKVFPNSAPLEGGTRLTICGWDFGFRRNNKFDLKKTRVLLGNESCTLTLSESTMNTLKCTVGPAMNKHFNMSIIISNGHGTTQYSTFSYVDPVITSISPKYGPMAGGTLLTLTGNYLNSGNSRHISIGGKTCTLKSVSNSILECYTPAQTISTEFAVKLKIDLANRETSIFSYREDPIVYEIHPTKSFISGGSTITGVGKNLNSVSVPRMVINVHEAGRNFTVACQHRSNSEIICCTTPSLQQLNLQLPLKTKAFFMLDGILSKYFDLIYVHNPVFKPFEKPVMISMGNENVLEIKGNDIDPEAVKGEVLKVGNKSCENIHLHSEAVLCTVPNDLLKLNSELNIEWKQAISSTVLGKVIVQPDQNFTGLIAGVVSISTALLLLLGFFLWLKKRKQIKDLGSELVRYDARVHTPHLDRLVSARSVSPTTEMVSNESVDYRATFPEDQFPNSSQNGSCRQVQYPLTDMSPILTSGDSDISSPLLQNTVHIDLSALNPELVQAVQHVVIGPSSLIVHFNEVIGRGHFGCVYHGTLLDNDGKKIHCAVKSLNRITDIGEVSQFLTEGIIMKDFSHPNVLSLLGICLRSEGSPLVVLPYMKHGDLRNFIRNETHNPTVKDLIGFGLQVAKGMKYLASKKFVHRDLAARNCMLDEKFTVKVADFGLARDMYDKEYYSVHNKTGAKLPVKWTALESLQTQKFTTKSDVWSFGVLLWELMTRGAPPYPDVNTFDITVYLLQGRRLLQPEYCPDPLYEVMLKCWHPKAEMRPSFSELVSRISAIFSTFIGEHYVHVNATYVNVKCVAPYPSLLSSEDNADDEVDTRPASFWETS

[10] = target: Death-associated protein kinase 1 (Homo sapiens) (UniProt P53355); assay: Inhibition of DAPK1 (unknown origin) at 0.49 uM relative to control
Chain of Death-associated protein kinase 1 (Homo sapiens) (P53355 whole entry, looked up): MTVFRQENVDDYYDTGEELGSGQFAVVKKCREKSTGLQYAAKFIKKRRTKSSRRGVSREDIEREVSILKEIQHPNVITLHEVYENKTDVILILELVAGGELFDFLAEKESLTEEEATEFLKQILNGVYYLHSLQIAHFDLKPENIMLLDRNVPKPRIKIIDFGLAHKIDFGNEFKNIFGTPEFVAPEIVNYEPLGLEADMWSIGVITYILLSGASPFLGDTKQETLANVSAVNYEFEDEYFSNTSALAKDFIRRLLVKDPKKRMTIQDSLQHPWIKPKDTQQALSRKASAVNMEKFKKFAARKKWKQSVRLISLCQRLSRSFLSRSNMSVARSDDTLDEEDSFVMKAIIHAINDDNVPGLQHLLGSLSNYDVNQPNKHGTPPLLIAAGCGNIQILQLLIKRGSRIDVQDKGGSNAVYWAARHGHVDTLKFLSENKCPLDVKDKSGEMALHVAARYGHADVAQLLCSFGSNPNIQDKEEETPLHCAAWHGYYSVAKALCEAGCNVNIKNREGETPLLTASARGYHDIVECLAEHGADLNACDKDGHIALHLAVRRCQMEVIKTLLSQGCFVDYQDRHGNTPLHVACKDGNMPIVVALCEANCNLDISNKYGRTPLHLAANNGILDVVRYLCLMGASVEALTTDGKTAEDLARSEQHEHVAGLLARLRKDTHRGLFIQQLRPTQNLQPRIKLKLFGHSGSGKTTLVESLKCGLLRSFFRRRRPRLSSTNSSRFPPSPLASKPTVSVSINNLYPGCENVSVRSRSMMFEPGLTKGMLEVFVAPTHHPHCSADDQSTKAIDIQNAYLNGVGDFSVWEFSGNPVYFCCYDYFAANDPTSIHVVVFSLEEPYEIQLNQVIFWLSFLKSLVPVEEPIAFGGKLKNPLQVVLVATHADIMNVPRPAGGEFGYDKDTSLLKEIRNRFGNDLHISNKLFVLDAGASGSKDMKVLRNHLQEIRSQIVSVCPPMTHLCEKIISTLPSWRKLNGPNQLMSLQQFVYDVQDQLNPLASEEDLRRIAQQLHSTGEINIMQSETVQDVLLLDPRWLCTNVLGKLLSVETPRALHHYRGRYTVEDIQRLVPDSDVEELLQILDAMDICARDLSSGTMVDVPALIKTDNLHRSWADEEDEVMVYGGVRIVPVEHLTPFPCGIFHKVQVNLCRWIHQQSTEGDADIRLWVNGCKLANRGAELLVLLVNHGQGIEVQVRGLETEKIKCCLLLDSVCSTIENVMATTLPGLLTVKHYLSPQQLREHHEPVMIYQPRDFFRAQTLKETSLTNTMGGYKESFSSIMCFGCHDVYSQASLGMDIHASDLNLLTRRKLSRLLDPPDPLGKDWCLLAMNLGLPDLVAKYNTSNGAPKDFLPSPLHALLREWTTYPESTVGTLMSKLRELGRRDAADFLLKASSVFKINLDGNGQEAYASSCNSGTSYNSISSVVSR

[11] = target: Vascular endothelial growth factor receptor 2 (Homo sapiens) (UniProt P35968); assay: Inhibition of KDR (unknown origin) at 0.45 uM relative to control
[12] = target: Casein kinase I isoform epsilon (Homo sapiens) (UniProt P49674); assay: Inhibition of CK1-epsilon (unknown origin) at 0.45 uM relative to control
Chain of Casein kinase I isoform epsilon (Homo sapiens) (P49674 whole entry, looked up, canonical isoform): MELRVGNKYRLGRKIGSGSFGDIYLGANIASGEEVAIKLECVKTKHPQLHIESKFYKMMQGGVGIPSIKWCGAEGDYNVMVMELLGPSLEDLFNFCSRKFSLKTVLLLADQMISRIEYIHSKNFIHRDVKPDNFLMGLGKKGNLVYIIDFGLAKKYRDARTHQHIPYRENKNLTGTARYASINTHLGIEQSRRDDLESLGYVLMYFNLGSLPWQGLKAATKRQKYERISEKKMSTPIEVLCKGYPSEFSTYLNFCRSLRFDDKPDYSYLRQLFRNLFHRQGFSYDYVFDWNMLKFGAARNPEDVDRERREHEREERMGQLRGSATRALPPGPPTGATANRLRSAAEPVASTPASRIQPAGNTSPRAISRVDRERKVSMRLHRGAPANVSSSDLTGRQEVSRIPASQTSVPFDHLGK

[13] = target: MAP kinase-activated protein kinase 2 (Homo sapiens) (UniProt P49137); assay: Inhibition of MAPKAPK2 (unknown origin) at 0.45 uM relative to control
[14] = target: Cyclin-dependent kinase 3 (Homo sapiens) (UniProt Q00526); assay: Inhibition of CDK3 (unknown origin) at 0.45 uM relative to control
[15] = target: Proto-oncogene tyrosine-protein kinase ROS (Homo sapiens) (UniProt P08922); assay: Inhibition of ROS (unknown origin) at 0.45 uM relative to control
[16] = target: Serine/threonine-protein kinase 24 (Homo sapiens) (UniProt Q9Y6E0); assay: Inhibition of MST3 (unknown origin) at 0.45 uM relative to control
[17] = target: Serine/threonine-protein kinase MARK2 (Homo sapiens) (UniProt Q7KZI7); assay: Inhibition of MARK2 (unknown origin) at 0.45 uM relative to control
[18] = target: MAP kinase-activated protein kinase 3 (Homo sapiens) (UniProt Q16644); assay: Inhibition of MAPKAPK3 (unknown origin) at 0.45 uM relative to control
[19] = target: Mitogen-activated protein kinase kinase kinase kinase 4 (Homo sapiens) (UniProt O95819); assay: Inhibition of HGK (unknown origin) at 0.45 uM relative to control
[20] = target: Serine/threonine-protein kinase PAK 3 (Homo sapiens) (UniProt O75914); assay: Inhibition of PAK3 (unknown origin) at 0.45 uM relative to control
Chain of Serine/threonine-protein kinase PAK 3 (Homo sapiens) (O75914 whole entry, looked up): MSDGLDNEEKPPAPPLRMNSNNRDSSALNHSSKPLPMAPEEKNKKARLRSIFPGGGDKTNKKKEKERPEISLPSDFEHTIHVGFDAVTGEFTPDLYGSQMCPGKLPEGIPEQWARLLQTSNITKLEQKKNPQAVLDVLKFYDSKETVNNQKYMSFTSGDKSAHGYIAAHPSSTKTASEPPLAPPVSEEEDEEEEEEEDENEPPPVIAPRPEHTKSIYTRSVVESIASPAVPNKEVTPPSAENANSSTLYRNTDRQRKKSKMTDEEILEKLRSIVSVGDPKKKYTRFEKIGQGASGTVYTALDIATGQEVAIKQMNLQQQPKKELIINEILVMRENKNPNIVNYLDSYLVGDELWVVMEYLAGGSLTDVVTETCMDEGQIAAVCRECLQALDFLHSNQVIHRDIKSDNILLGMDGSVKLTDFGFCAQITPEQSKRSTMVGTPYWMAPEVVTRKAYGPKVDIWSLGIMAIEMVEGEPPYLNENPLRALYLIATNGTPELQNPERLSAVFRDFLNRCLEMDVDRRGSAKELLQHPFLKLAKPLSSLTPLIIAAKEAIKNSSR

COC(=O)Nc1noc2cc(-c3c(-c4ccccn4)n[nH]c3C)ccc12
inhibition [1]: 0.7%
inhibition [2]: -2%
inhibition [3]: 1.3%
inhibition [4]: 34%
inhibition [5]: -1%
inhibition [6]: -3.3%

Cc1[nH]nc(C2CC2)c1-c1ccc2c(NC(=O)C3CC3)noc2c1
inhibition [7]: -0.3%
inhibition [8]: -2.3%
inhibition [9]: 1.3%
inhibition [10]: -2.7%

Cc1n[nH]c(C)c1-c1ccc2c(NC(=O)c3ccc(N4CCN(C)CC4)cc3)n[nH]c2c1
inhibition [11]: 35.7%
inhibition [12]: 2.7%
inhibition [13]: 0.3%
inhibition [14]: 7.3%
inhibition [15]: 1.3%
inhibition [16]: 44.7%
inhibition [17]: 35%
inhibition [18]: 4%
inhibition [19]: 73.3%
inhibition [20]: 3.7%
